Test results taken from the supplement of paper PMC10307832.

What was measured:
Experiment in all cases: relative viability (nuclei count vs DMSO), 5 days (fraction); higher = more cells survive
Vismodegib + Foretinib = compound: CS(=O)(=O)c1ccc(C(=O)Nc2ccc(Cl)c(-c3ccccn3)c2)c(Cl)c1 [Vismodegib] + COc1cc2c(Oc3ccc(NC(=O)C4(C(=O)Nc5ccc(F)cc5)CC4)cc3F)ccnc2cc1OCCCN1CCOCC1 [Foretinib] (partner 0.25 µM)
Outline: (§1)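 Relative viability divides the nuclei count in treated wells by that in vehicle wells. Lung cancer cell lines were seeded in 1536-well plates, dosed by pin tool the next day, and fixed and stained after 5 days in one step with final 0.05% Triton X-100, 1% formaldehyde and 1 ug/ml Hoechst. Dosing was a single drug or a fixed anchor-drug dose plus five library-drug doses (not always all listed) in √10 steps, and values are medians of duplicate plates imaged at 4×.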

Ruxolitinib + Dasatinib = compound: N#CC[C@H](C1CCCC1)n1cc(-c2ncnc3[nH]ccc23)cn1 [Ruxolitinib] + Cc1nc(Nc2ncc(C(=O)Nc3c(C)cccc3Cl)s2)cc(N2CCN(CCO)CC2)n1 [Dasatinib] (partner 0.075 µM)
Outline: as §1

Vismodegib + Pemetrexed = compound: CS(=O)(=O)c1ccc(C(=O)Nc2ccc(Cl)c(-c3ccccn3)c2)c(Cl)c1 [Vismodegib] + Nc1nc2[nH]cc(CCc3ccc(C(=O)N[C@@H](CCC(=O)O)C(=O)O)cc3)c2c(=O)[nH]1 [Pemetrexed] (partner 0.2 µM)
Outline: as §1

Ruxolitinib + Pemetrexed = compound: N#CC[C@H](C1CCCC1)n1cc(-c2ncnc3[nH]ccc23)cn1 [Ruxolitinib] + Nc1nc2[nH]cc(CCc3ccc(C(=O)N[C@@H](CCC(=O)O)C(=O)O)cc3)c2c(=O)[nH]1 [Pemetrexed] (partner 0.2 µM)
Outline: as §1

Cell Line | relative viability (Vismodegib + Foretinib; first compound 0.08 µM) | relative viability (Vismodegib + Foretinib; first compound 0.253 µM) | relative viability (Vismodegib + Foretinib; first compound 0.8 µM) | relative viability (Vismodegib + Foretinib; first compound 2.53 µM) | relative viability (Vismodegib + Foretinib; first compound 8 µM) | relative viability (Ruxolitinib + Dasatinib; first compound 0.08 µM) | relative viability (Ruxolitinib + Dasatinib; first compound 0.253 µM) | relative viability (Ruxolitinib + Dasatinib; first compound 0.8 µM) | relative viability (Ruxolitinib + Dasatinib; first compound 2.53 µM) | relative viability (Ruxolitinib + Dasatinib; first compound 8 µM) | relative viability (Vismodegib + Pemetrexed; first compound 0.08 µM) | relative viability (Vismodegib + Pemetrexed; first compound 0.253 µM) | relative viability (Vismodegib + Pemetrexed; first compound 0.8 µM) | relative viability (Vismodegib + Pemetrexed; first compound 2.53 µM) | relative viability (Vismodegib + Pemetrexed; first compound 8 µM) | relative viability (Ruxolitinib + Pemetrexed; first compound 0.08 µM) | relative viability (Ruxolitinib + Pemetrexed; first compound 0.253 µM) | relative viability (Ruxolitinib + Pemetrexed; first compound 0.8 µM) | relative viability (Ruxolitinib + Pemetrexed; first compound 2.53 µM) | relative viability (Ruxolitinib + Pemetrexed; first compound 8 µM)
NCI-H2170 | 0.996 | 1 | 1.04 | 1.02 | 1.08 | 0.691 | 0.681 | 0.627 | 0.599 | 0.483 | 0.254 | 0.272 | 0.304 | 0.253 | 0.284 | 0.256 | 0.262 | 0.259 | 0.266 | 0.276
NCI-H2228 | 0.866 | 1.02 | 0.871 | 0.769 | 1.01 | 0.399 | 0.457 | 0.484 | 0.401 | 0.198 | 0.342 | 0.401 | 0.291 | 0.316 | 0.333 | 0.332 | 0.342 | 0.318 | 0.324 | 0.321
NCI-H2342 | 0.984 | 1.04 | 1.06 | 0.949 | 0.947 | 0.315 | 0.299 | 0.341 | 0.31 | 0.319 | 0.769 | 0.821 | 0.81 | 0.611 | 0.719 | 0.594 | 0.767 | 0.812 | 0.752 | 0.733
NCI-H2347 | 1.12 | 0.599 | – | 0.834 | 0.978 | 0.295 | 0.341 | 0.297 | 0.29 | 0.333 | 0.423 | 0.423 | 0.459 | 0.435 | 0.458 | 0.459 | 0.407 | 0.451 | 0.406 | 0.434
NCI-H2405 | 1.05 | 1.04 | 0.995 | 1.01 | 1.08 | – | 0.192 | 0.214 | 0.189 | 0.218 | 1.13 | 1.03 | 1.03 | 1.01 | 1.01 | 1.07 | 1.11 | 1.13 | 0.895 | 0.592
NCI-H3122 | 0.994 | 0.938 | 0.849 | 0.858 | 1.02 | 0.852 | 0.725 | 0.932 | 0.634 | 0.286 | 0.201 | 0.199 | 0.228 | 0.184 | 0.19 | 0.212 | 0.198 | 0.192 | 0.19 | 0.188
